These results are taken from US6124498A, “Hydroxynaphthoic acids and derivatives” (University Of New Mexico, priority 1998, dated 2000).

By Kd is commonly meant the concentration at which binding is half-saturated. High values mean a looser complex, low ones a tighter complex. For orientation: Ki means the dissociation constant of the complex between target and ligand, obtained from inhibition or displacement.

“Also recorded” adds a separate entry of the source.

Experiment [1] has as its target T1, pLDH (Plasmodium falciparum, UniProt Q27743).
T1 construct: made in house; host or cells: E. coli
Put plainly: Quenching of intrinsic protein fluorescence of pLDH in presence and absence of ADP. The experiment is classed as binding. Particulars: presence vs absence of ADP. The source says: (§1) To test the Pan-Active Site inhibitor model for the compounds of the present invention, the binding of dihydroxynaphthoic acids to pLDH and human LDH was examined using fluorescence techniques. The effects of ADP on the binding of inhibitors was compared with the effects of ADP on the binding of NADH to determine which part of the cofactor binding site was the target of the inhibitors. Representative results are shown in FIGS. 13A and 13B for the binding of compound 25c to pLDH. […] In FIG. 13B is shown the quenching of pLDH fluorescence by compound 25c in the presence and absence of ADP.

In a further experiment the target is T2, human LDH-H (LDH-H4) (Homo sapiens, UniProt P07195).
T2 construct: purchased Sigma
Put plainly: Inhibition of human lactate dehydrogenase LDH-H (LDH-H4), NADH reduction of pyruvate. In kind it is biochemical. The settings on record: group at 7-position, compared to 13. The method, then: (§2) Human LDH-H4 and LDH-M4 were from Sigma.
(§3) LDH activity in the direction of NADH reduction of pyruvate to L-lactate was determined spectrophotometrically in pH 7.5 Tris buffer, 100 mM, containing 10 mM pyruvate and […], 25° C., 340 nm, ε=6.2 mM^-1 cm^-1. Michaelis constants were determined by nonlinear regression analysis of initial rate data using the Enzfitter program (Elsevier-Biosoft). Ki values were determined from double reciprocal plots by linear regression analysis.

Experiment [2] relates to glucose 6-phosphate dehydrogenase. Description: Inhibition of glucose 6-phosphate dehydrogenase. In kind it is biochemical. Particulars: FIG. 14C. The method, then: (§4) Other studies with other dehydrogenases that contain the classic Rossman fold, in addition to LDH, were carried out to test that inhibition of dehydrogenases by substituted didhydroxynaphthoic acids is not limited to inhibition of LDH. A number of dehydrogenases were examined as shown in FIGS. 14A (2,3-dihydroxy-6-methyl-7-(o-methylbenzyl)-4-(1-methylethyl)-1-naphthoic acid (25e) inhibition D-lactate dehydrogenase), 14B (2,3-dihydroxy-6-methyl-7-(m-methylbenzyl)-4-(1-methylethyl)-1-naphthoic acid (25f) inhibition of malate dehydrogenase), 14C (compound 25b inhibition of glucose 6-phosphate dehydrogenase) and 14D (compound 21e inhibition of alcohol dehydrogenase).

The next experiment deals with T3, human LDH-M (LDH-M4) (Homo sapiens, UniProt P00338).
T3 construct: purchased Sigma
Description: Inhibition of human lactate dehydrogenase LDH-M (LDH-M4), NADH reduction of pyruvate. In kind it is biochemical. Particulars: for change in inhibition / dissociation constant of LDH-M relative to 13: group at 7-position, compared to 13; for selectivity for LDH-M compared to LDH-H: LDH-M vs LDH-H; for mode of inhibition of LDH-M with respect to cofactor (NADH): vs cofactor NADH. How it is done:
Recombinant pLDH was produced in E. coli, similar to the procedure described by Bzik et al. in "Expression of Plasmodium falciparum Lactate Dehydrogenase in Escherida coli." in Mol. Biochem. Parasitol., 1993, 59, 155-166 and was purified by Cibacron blue affinity chromatography and chromatofocusing as described previously. Human LDH-H4 and LDH-M4 were from Sigma.
as §3

The target in experiment [3] is T1, pLDH. Put plainly: biochemical. The settings on record: for selectivity for pLDH compared to LDH-H: pLDH vs LDH-H; for mode of inhibition of pLDH with respect to cofactor (NADH): vs cofactor NADH. The experiment is classed as biochemical. The method, then: as §2, §3
Another experiment relates to alcohol dehydrogenase. Put plainly: Inhibition of alcohol dehydrogenase. The experiment is classed as biochemical. Particulars: FIG. 14D. How it is done: as §4
In the next experiment the test system is D-lactate dehydrogenase. Description: Inhibition of D-lactate dehydrogenase. The experiment is classed as biochemical. The settings on record: FIG. 14A. The method, then: as §4
Experiment [4] relates to IMP dehydrogenase type 11. The settings on record: dominant isoenzyme in neoplastic cells; cited from earlier work.
The next experiment deals with LDH-M4. Description: Quenching of intrinsic protein fluorescence of LDH-M4 in presence and absence of ADP. In kind it is binding, human. Particulars: presence vs absence of ADP.
Source text: as §1

In the next experiment the test system is malate dehydrogenase. Put plainly: Inhibition of malate dehydrogenase. In kind it is biochemical. Particulars: FIG. 14B. The method, then: as §4

T1 sequence (Q27743 whole entry): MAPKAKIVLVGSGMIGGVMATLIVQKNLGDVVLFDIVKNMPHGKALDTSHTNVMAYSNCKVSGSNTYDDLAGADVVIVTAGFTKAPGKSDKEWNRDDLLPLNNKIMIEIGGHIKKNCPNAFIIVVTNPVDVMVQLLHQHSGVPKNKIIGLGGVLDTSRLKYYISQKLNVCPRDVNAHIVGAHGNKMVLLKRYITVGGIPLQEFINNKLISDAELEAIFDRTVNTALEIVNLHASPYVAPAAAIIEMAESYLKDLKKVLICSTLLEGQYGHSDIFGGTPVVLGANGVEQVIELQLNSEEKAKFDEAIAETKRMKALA
T2 sequence (P07195 2-334 limits assumed): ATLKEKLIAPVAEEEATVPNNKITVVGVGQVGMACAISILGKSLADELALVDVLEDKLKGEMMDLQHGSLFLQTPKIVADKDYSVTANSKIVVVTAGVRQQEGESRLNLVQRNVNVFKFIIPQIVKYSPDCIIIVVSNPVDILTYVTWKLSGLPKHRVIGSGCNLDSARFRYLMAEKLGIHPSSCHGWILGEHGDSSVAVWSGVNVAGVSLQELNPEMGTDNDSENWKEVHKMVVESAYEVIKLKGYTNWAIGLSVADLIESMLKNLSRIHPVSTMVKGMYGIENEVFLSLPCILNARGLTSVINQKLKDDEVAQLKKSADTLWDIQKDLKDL

For `NC(=O)C1=CN([C@@H]2O[C@H](COP(=O)(O)OP(=O)(O)OC[C@H]3O[C@@H](n4cnc5c(N)ncnc54)[C@H](O)[C@@H]3O)[C@@H](O)[C@H]2O)C=CC1` [NADH, reference compound], the “effect of ADP on binding to pLDH (fluorescence quenching)” value on pLDH [1] is given as “the presence of ADP competes with the binding of NADH”.
Consider `Cc1cc2c(C(C)C)c(O)c(O)c(C(=O)O)c2cc1Cc1ccccc1` [Compound 25b, 7-Benzyl-2,3-dihydroxy-6-methyl-4-(1-methylethyl)-1-naphthoic acid], for which the “change in inhibition / dissociation constant of LDH-H relative to 13” value at human LDH-H (LDH-H4) is recorded as “markedly stronger inhibition”. In addition, in [2], the “inhibition of glucose 6-phosphate dehydrogenase” value is listed as “inhibition”. In addition, the “change in inhibition / dissociation constant of LDH-M relative to 13” value at human LDH-M (LDH-M4) was “markedly stronger inhibition”.
Take `Cc1cc2c(C)c(O)c(O)c(C(=O)O)c2cc1C` [Compound 21b, 2,3-Dihydroxy-4,6,7-trimethyl-1-naphthoic acid]: on pLDH [3], the “selectivity for pLDH compared to LDH-H” value was “selectivity for pLDH and LDH-M compared to LDH-H”. Also, at human LDH-M (LDH-M4), the “selectivity for LDH-M compared to LDH-H” value was “selectivity for pLDH and LDH-M compared to LDH-H”.
Take `Cc1cc2c(C)c(O)c(O)c(C(=O)O)c2cc1Cc1ccccc1` [Compound 21c, 7-Benzyl-2,3-dihydroxy-4,6-dimethyl-1-naphthoic acid]: the “selectivity for pLDH compared to LDH-H” value on pLDH [3] is “selectivity for pLDH and LDH-M compared to LDH-H”. For the same molecule, at human LDH-M (LDH-M4), the “selectivity for LDH-M compared to LDH-H” value is “selectivity for pLDH and LDH-M compared to LDH-H”.
Consider `Cc1ccc2c(C(=O)O)c(O)c(O)c(C(C)C)c2c1` [Compound 13, 8-deoxyhemigossylic acid, reference compound], for which the “dissociation constant for inhibition of pLDH” value on pLDH [3] (in words) is given as “low μmolar range”. In addition, the “mode of inhibition of pLDH with respect to cofactor (NADH)” value at pLDH [3] is “competitive with the binding of NADH”. For the same molecule, at human LDH-M (LDH-M4), the “mode of inhibition of LDH-M with respect to cofactor (NADH)” value is recorded as “competitive with the binding of NADH”.
Take `CCCc1c(O)c(O)c(C(=O)O)c2cc(C)c(C)cc12` [Compound 21e, 2,3-Dihydroxy-6,7-dimethyl-4-n-propyl-1-naphthoic acid]: the “selectivity for LDH-M compared to LDH-H” value on human LDH-M (LDH-M4) is reported as 190 fold. Besides, the “inhibition of alcohol dehydrogenase” value in the experiment on alcohol dehydrogenase is on record as “inhibition”.
Take `Cc1ccc(Cc2cc3c(C(=O)O)c(O)c(O)c(C(C)C)c3cc2C)cc1` [Compound 25d, 2,3-dihydroxy-6-methyl-7-(p-methylbenzyl)-4-(1-methylethyl)-1-naphthoic acid]: the dissociation constant Kd on human LDH-M (LDH-M4) (pH 7.5 Tris, 25° C.) is 30 nM. Moreover, the “mode of inhibition of LDH-M with respect to cofactor (NADH)” value at human LDH-M (LDH-M4) is “competitive against both cofactor and substrate”. At human LDH-M (LDH-M4) (vs substrate (pyruvate), FIGS. 12A and 12B), the “mode of inhibition of LDH-M4 with respect to substrate” value was “competitive against both cofactor and substrate”.
As to `Cc1ccccc1Cc1cc2c(C(=O)O)c(O)c(O)c(C(C)C)c2cc1C` [Compound 25e, 2,3-dihydroxy-6-methyl-7-(o-methylbenzyl)-4-(1-methylethyl)-1-naphthoic acid], in the experiment with D-lactate dehydrogenase, the “inhibition of D-lactate dehydrogenase” value is recorded as “inhibition”.
On to `NC(=O)c1csc([C@@H]2O[C@H](COP(=O)(O)OP(=O)(O)OC[C@H]3O[C@@H](n4cnc5c(N)ncnc54)[C@H](O)[C@@H]3O)[C@@H](O)[C@H]2O)n1` [thiazole-4-carboxamide adenine dinucleotide], for which the “inhibition of IMP dehydrogenase type 11” value in experiment [4] was “potent inhibitor”.
Consider `Cc1ccc2c(C(=O)O)c(O)c(O)c(C)c2c1` [Compound 21a, 2,3-Dihydroxy-4,6-dimethyl-1-naphthoic acid], for which the “selectivity for pLDH compared to LDH-H” value at pLDH [3] is “selectivity for pLDH and LDH-M compared to LDH-H”. Also, on human LDH-M (LDH-M4), the “selectivity for LDH-M compared to LDH-H” value is “selectivity for pLDH and LDH-M compared to LDH-H”.
Take `Cc1cc2c(C(C)C)c(O)c(O)c(C(=O)O)c2cc1Cc1ccc(C(F)(F)F)cc1` [Compound 25c, 7-p-Trifluoromethylbenzyl-2,3-dihydroxy-6-methyl-4-(1-methylethyl)-1-naphthoic acid]: the Ki on pLDH [3] (pH 7.5 Tris, 25° C., read-out: Ki for inhibition of pLDH) was determined as 200 nM. Also, the “selectivity for pLDH over LDH-H” value on pLDH [3] (pLDH over LDH-H) amounted to 400 fold. Moreover, the “selectivity for pLDH over LDH-M” value on pLDH [3] (pLDH over LDH-M) worked out at 75 fold. Besides, the “mode of inhibition of pLDH with respect to cofactor (NADH)” value at pLDH [3] was “competitive against both cofactor and substrate”. For the same molecule, the “selectivity for pLDH compared to either human LDH” value at pLDH [3] (vs human LDH-M and LDH-H) was “highly selective in favor of pLDH”. For the same molecule, the “mode of inhibition of pLDH with respect to substrate” value at pLDH [3] (vs substrate (pyruvate)) was “competitive against both cofactor and substrate; also recorded: appears competitive”. The “effect of ADP on binding to LDH-M4 (fluorescence quenching)” value in the experiment on LDH-M4 was “The same results were obtained with LDH-M4”. Further, at pLDH [1], the “competition with the ADP part of the NADH binding site of pLDH” value was “not competing with the ADP part of the NADH binding site” and the “effect of ADP on binding to pLDH (fluorescence quenching)” value is “enhances the binding of inhibitor”.
`Cc1cccc(Cc2cc3c(C(=O)O)c(O)c(O)c(C(C)C)c3cc2C)c1` [Compound 25f, 2,3-dihydroxy-6-methyl-7-(m-methylbenzyl)-4-(1-methylethyl)-1-naphthoic acid]: the “inhibition of malate dehydrogenase” value in the experiment on malate dehydrogenase is reported as “inhibition”.
As for `Cc1cc2c(C(=O)O)c(O)c(O)c(C(C)C)c2cc1C` [Compound 25a, 2,3-Dihydroxy-6,7-dimethyl-4-(1-methylethyl)-1-naphthoic acid], the “change in inhibition / dissociation constant of pLDH relative to 13” value at pLDH [3] (group at 7-position, compared to 13) is “little change in the dissociation constants”. Further, the “change in inhibition / dissociation constant of LDH-M relative to 13” value on human LDH-M (LDH-M4) is “little change in the dissociation constants”.
